According to PMC8185074, “Anchor extension: a structure-guided approach to design cyclic peptides targeting enzyme active sites” (Nature Communications, 2021):
Peptide text beside a SMILES is read from it.

What was measured:
Type in all cases: biochemical
HDAC6 = molecular target: T1, HDAC6 (Homo sapiens, UniProt Q9UBN7); assay: HDAC6 inhibition, full IC50 measurement (Reaction Biology; fluorogenic p53 peptide RHKK(Ac)AMC)
T1 construct: purchased Reaction Biology Corporation (assay run by the CRO)
T1 sequence (Q9UBN7 1-1215): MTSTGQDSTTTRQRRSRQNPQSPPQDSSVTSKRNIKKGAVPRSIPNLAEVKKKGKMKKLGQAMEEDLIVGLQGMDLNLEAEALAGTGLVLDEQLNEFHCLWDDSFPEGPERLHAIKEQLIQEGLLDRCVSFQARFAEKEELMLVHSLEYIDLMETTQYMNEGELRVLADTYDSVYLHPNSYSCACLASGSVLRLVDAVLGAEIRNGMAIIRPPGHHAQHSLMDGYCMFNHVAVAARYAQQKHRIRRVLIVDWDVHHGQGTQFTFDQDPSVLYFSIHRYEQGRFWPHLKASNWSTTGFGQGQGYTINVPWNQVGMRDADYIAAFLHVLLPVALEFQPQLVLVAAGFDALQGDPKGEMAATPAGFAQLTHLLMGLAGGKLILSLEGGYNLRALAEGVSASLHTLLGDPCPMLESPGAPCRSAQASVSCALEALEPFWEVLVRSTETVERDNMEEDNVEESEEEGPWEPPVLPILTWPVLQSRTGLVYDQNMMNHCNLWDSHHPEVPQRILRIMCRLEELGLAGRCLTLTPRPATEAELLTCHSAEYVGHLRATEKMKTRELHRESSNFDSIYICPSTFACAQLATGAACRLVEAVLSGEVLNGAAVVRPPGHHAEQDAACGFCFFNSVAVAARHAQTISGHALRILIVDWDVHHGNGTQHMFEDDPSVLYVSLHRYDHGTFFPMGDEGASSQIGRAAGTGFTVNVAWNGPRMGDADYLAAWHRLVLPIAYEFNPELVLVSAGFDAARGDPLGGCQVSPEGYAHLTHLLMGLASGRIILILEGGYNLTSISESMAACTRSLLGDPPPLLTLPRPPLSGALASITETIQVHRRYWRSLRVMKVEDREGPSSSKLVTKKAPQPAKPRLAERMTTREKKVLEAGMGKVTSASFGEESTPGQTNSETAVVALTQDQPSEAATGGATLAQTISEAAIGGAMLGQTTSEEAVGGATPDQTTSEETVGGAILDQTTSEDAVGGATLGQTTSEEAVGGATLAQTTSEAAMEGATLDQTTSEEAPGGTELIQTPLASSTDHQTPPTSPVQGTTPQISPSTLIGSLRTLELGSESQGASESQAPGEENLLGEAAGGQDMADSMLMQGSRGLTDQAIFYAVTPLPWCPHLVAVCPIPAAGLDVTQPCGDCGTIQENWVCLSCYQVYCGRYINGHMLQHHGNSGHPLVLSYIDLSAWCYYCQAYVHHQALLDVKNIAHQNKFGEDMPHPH
In short: (§1)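 Deacetylation of 50 μM RHKK(Ac)AMC is measured after 1 h at 30 °C in pH 8.0 Tris buffer (1% DMSO, 1 mg/ml BSA). Developer ends the reaction; the post-plateau 360/460 nm signal is fitted to IC50, averaging replicate measurements.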

HDAC3 = molecular target: T2, HDAC3 (Homo sapiens, UniProt O15379); assay: HDAC3 inhibition, full IC50 measurement (Reaction Biology; fluorogenic p53 peptide RHKK(Ac)AMC)
T2 construct: purchased Reaction Biology Corporation (assay run by the CRO)
T2 sequence (O15379 whole entry): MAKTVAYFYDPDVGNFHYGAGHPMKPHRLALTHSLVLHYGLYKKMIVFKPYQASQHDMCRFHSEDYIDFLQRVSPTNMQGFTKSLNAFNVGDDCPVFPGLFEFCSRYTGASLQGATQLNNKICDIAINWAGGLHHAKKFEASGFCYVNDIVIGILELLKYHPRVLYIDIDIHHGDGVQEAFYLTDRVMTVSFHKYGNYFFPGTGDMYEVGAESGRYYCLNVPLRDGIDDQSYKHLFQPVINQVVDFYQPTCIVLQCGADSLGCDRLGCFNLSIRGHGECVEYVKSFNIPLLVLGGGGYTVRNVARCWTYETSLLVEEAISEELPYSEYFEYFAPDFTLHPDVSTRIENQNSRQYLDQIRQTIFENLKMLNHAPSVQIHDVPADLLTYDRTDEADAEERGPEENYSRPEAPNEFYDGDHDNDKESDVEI
T2 sequence (Q9Y618 395-489 partner limits assumed): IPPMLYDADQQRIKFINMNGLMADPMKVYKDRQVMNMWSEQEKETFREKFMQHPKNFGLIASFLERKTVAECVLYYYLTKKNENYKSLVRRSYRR
In short: as §1

HDAC8 = molecular target: T3, HDAC8 (Homo sapiens, UniProt Q9BY41); assay: HDAC8 inhibition, full IC50 measurement (Reaction Biology; fluorogenic p53 peptide RHKK(Ac)AMC); details: t1/t2 replicates
T3 construct: purchased Reaction Biology Corporation (assay run by the CRO)
T3 sequence (Q9BY41 1-377): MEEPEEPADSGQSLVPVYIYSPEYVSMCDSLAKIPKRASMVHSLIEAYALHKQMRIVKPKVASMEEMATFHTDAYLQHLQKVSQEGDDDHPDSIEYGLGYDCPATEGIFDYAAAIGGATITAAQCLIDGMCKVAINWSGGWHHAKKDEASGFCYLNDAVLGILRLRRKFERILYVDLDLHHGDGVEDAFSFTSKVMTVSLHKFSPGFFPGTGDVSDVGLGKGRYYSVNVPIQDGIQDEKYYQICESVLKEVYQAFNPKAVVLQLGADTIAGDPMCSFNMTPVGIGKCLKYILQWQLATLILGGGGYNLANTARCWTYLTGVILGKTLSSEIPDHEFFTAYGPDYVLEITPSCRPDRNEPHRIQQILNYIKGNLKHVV
In short: as §1

NCCCC[C@H]1NC(=O)[C@H](CCC(N)=O)NC(=O)[C@H](CCC(=O)O)NC(=O)[C@@H]2CCCN2C(=O)[C@H](CC(N)=O)NC(=O)[C@H](CCCCCS)NC(=O)CNC(=O)[C@H](Cc2c[nH]c3ccccc23)NC1=O [des1.1.1, SHA-Asn-Pro-Glu-Gln-dLys-Trp-Gly] (HELM PEPTIDE1{E.Q.[dK].W.G.[O=C([C@H](CCCCCS)N[*:1])[*:2]].N.P}$PEPTIDE1,PEPTIDE1,1:R1-8:R2$$$V2.0)
HDAC6 activity raw data (signal) (HDAC6; Conc. 1.00E-05 M, t1): 2105
HDAC6 activity raw data (signal) (HDAC6; Conc. 1.11E-06 M, t1): 66521
HDAC6 activity raw data (signal) (HDAC6; Conc. 1.11E-06 M, t2): 22362
HDAC6 activity raw data (signal) (HDAC6; Conc. 1.23E-07 M, t1): 195275
HDAC6 activity raw data (signal) (HDAC6; Conc. 1.23E-07 M, t2): 111620
HDAC6 activity raw data (signal) (HDAC6; Conc. 1.37E-08 M, t1): 384422
HDAC6 activity raw data (signal) (HDAC6; Conc. 1.37E-08 M, t2): 355429
HDAC6 activity raw data (signal) (HDAC6; Conc. 1.52E-09 M, t1): 513045
HDAC6 activity raw data (signal) (HDAC6; Conc. 1.52E-09 M, t2): 553965
HDAC6 activity raw data (signal) (HDAC6; Conc. 3.33E-06 M, t1): 30608
HDAC6 activity raw data (signal) (HDAC6; Conc. 3.70E-07 M, t1): 121302
HDAC6 activity raw data (signal) (HDAC6; Conc. 3.70E-07 M, t2): 45275
HDAC6 activity raw data (signal) (HDAC6; Conc. 4.12E-08 M, t1): 327835
HDAC6 activity raw data (signal) (HDAC6; Conc. 4.12E-08 M, t2): 217932
HDAC6 activity raw data (signal) (HDAC6; Conc. 4.57E-09 M, t1): 470518
HDAC6 activity raw data (signal) (HDAC6; Conc. 4.57E-09 M, t2): 472349
HDAC6 activity raw data (signal) (HDAC6; Conc. 5.08E-10 M, t1): 541421
HDAC6 activity raw data (signal) (HDAC6; Conc. 5.08E-10 M, t2): 570888
HDAC3 activity raw data (signal) (HDAC3; Conc. 1.00E-05 M, t1): 45806
HDAC3 activity raw data (signal) (HDAC3; Conc. 1.00E-05 M, t2): 14609
HDAC3 activity raw data (signal) (HDAC3; Conc. 1.11E-06 M, t1): 200334
HDAC3 activity raw data (signal) (HDAC3; Conc. 1.11E-06 M, t2): 152988
HDAC3 activity raw data (signal) (HDAC3; Conc. 1.23E-07 M, t1): 623414
HDAC3 activity raw data (signal) (HDAC3; Conc. 1.23E-07 M, t2): 515219
HDAC3 activity raw data (signal) (HDAC3; Conc. 1.37E-08 M, t1): 834270
HDAC3 activity raw data (signal) (HDAC3; Conc. 1.37E-08 M, t2): 1063632
HDAC3 activity raw data (signal) (HDAC3; Conc. 1.52E-09 M, t1): 943875
HDAC3 activity raw data (signal) (HDAC3; Conc. 1.52E-09 M, t2): 1416606
HDAC3 activity raw data (signal) (HDAC3; Conc. 3.33E-06 M, t1): 128090
HDAC3 activity raw data (signal) (HDAC3; Conc. 3.33E-06 M, t2): 52786
HDAC3 activity raw data (signal) (HDAC3; Conc. 3.70E-07 M, t1): 393148
HDAC3 activity raw data (signal) (HDAC3; Conc. 3.70E-07 M, t2): 276336
HDAC3 activity raw data (signal) (HDAC3; Conc. 4.12E-08 M, t1): 758574
HDAC3 activity raw data (signal) (HDAC3; Conc. 4.12E-08 M, t2): 884895
HDAC3 activity raw data (signal) (HDAC3; Conc. 4.57E-09 M, t1): 936051
HDAC3 activity raw data (signal) (HDAC3; Conc. 4.57E-09 M, t2): 1217433
HDAC3 activity raw data (signal) (HDAC3; Conc. 5.08E-10 M, t1): 935427
HDAC3 activity raw data (signal) (HDAC3; Conc. 5.08E-10 M, t2): 1315263
HDAC8 activity raw data (signal) (HDAC8; peptide conc. 1.00E-05 M, listed as des1.1.1_t1): 258617
HDAC8 activity raw data (signal) (HDAC8; peptide conc. 1.00E-05 M, listed as des1.1.1_t2): 8333740
HDAC8 activity raw data (signal) (HDAC8; peptide conc. 1.11E-06 M, listed as des1.1.1_t1): 532680
HDAC8 activity raw data (signal) (HDAC8; peptide conc. 1.11E-06 M, listed as des1.1.1_t2): 26455057
HDAC8 activity raw data (signal) (HDAC8; peptide conc. 1.23E-07 M, listed as des1.1.1_t1): 587120
HDAC8 activity raw data (signal) (HDAC8; peptide conc. 1.23E-07 M, listed as des1.1.1_t2): 38904462
HDAC8 activity raw data (signal) (HDAC8; peptide conc. 1.37E-08 M, listed as des1.1.1_t1): 802422
HDAC8 activity raw data (signal) (HDAC8; peptide conc. 1.37E-08 M, listed as des1.1.1_t2): 44804049
HDAC8 activity raw data (signal) (HDAC8; peptide conc. 1.52E-09 M, listed as des1.1.1_t1): 956971
HDAC8 activity raw data (signal) (HDAC8; peptide conc. 1.52E-09 M, listed as des1.1.1_t2): 49754188
HDAC8 activity raw data (signal) (HDAC8; peptide conc. 3.33E-06 M, listed as des1.1.1_t1): 289575
HDAC8 activity raw data (signal) (HDAC8; peptide conc. 3.33E-06 M, listed as des1.1.1_t2): 18105294
HDAC8 activity raw data (signal) (HDAC8; peptide conc. 3.70E-07 M, listed as des1.1.1_t1): 559845
HDAC8 activity raw data (signal) (HDAC8; peptide conc. 3.70E-07 M, listed as des1.1.1_t2): 34440414
HDAC8 activity raw data (signal) (HDAC8; peptide conc. 4.12E-08 M, listed as des1.1.1_t1): 916202
HDAC8 activity raw data (signal) (HDAC8; peptide conc. 4.12E-08 M, listed as des1.1.1_t2): 43441318
HDAC8 activity raw data (signal) (HDAC8; peptide conc. 4.57E-09 M, listed as des1.1.1_t1): 928568
HDAC8 activity raw data (signal) (HDAC8; peptide conc. 4.57E-09 M, listed as des1.1.1_t2): 47580068
HDAC8 activity raw data (signal) (HDAC8; peptide conc. 5.08E-10 M, listed as des1.1.1_t1): 688133
HDAC8 activity raw data (signal) (HDAC8; peptide conc. 5.08E-10 M, listed as des1.1.1_t2): 50930211
